Data published in US10538555B2, “Macrocyclic inhibitors of the PD-1/PD-L1 and CD80(B7-1)/PD-L1 protein/protein interactions” (BRISTOL-MYERS SQUIBB COMPANY, priority 2014, dated 2020).
Where a SMILES comes first, the peptide text is derived from it. Bridges are numbered along the chain shown (N, C = ends). [ ]: non-standard residue; d: D form. Hyp = O=C(O)[C@@H]1C[C@@H](O)CN1; NMeNle = CCCC[C@H](NC)C(=O)O; NMeA = CN[C@@H](C)C(=O)O; Orn = NCCC[C@H](N)C(=O)O; Dab = NCC[C@H](N)C(=O)O; Dap = NC[C@H](N)C(=O)O

Molecular target: T1, Human PD-L1/PD-1 (Homo sapiens, UniProt Q9NZQ7)
T1 construct: TVMV protease cleavage site (C); made in house; host or cells: HEK293T cells
Assay: HTRF Human PD-L1/PD-1 binding assay (PD-1-Ig/PD-L1-His)
Settings: PD-L1-His 10 nM, PD-1-Ig 20 nM; class symbol; read-out: HTRF Human PD-L1/PD-1 Binding Assay IC50 Range
Outline: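 Truncated Fc-fused human PD-1 (aa 25-167) at 20 nM and His-tagged PD-L1 (aa 18-239) at 10 nM final are used, with peptides preincubated 15 min with PD-L1. Detection uses europium-cryptate anti-Ig and APC anti-His antibodies; 665/620 nm ratio.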

T1 sequence (Q9NZQ7 with tags, fused parts or gaps): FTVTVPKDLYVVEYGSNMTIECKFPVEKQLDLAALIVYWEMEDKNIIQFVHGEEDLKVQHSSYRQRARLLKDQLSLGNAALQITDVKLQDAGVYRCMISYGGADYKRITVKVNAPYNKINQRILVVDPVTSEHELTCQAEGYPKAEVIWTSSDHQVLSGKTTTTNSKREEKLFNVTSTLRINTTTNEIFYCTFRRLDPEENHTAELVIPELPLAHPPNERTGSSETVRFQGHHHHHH

Compared with `CCCC[C@H]1C(=O)N(C)[C@@H](CCCC)C(=O)N[C@@H](CCCN)C(=O)N[C@H](C(=O)NCC(N)=O)CSCC(=O)N[C@@H](Cc2ccc(OC)cc2)C(=O)N(C)[C@@H](C)C(=O)N[C@@H](CC(=O)O)C(=O)N2CCC[C@H]2C(=O)N[C@@H](CN)C(=O)N[C@@H](CCCCN)C(=O)N2C[C@H](O)C[C@H]2C(=O)N[C@@H](Cc2c[nH]c3ccccc23)C(=O)N[C@@H](CCN)C(=O)N[C@@H](Cc2c[nH]c3ccccc23)C(=O)N1C` [Example 7089] ({CH2CO}-Y(Me)[NMeA]DP[Dap]K[Hyp]W[Dab]W[NMeNle][NMeNle][Orn]CG-NH2; thioether N-14), `CCCC[C@H]1C(=O)N(C)[C@@H](CCCC)C(=O)N[C@@H](CCCN)C(=O)N[C@H](C(=O)NCC(N)=O)CSCC(=O)N[C@@H](Cc2ccc(OC)cc2)C(=O)N(C)[C@@H](C)C(=O)N[C@@H](CCN)C(=O)N2CCC[C@H]2C(=O)N[C@@H](CN)C(=O)N[C@@H](CCC(=O)O)C(=O)N2C[C@H](O)C[C@H]2C(=O)N[C@@H](Cc2c[nH]c3ccccc23)C(=O)N[C@@H](CCN)C(=O)N[C@@H](Cc2c[nH]c3ccccc23)C(=O)N1C` [Example 7092] ({CH2CO}-Y(Me)[NMeA][Dab]P[Dap]E[Hyp]W[Dab]W[NMeNle][NMeNle][Orn]CG-NH2; thioether N-14) is higher in IC50: 1 to 9.9 nM for the first, 10 to 99.9 nM for the second.

`CCCC[C@H]1C(=O)N(C)[C@@H](CCCC)C(=O)N[C@@H](CCCN)C(=O)N[C@H](C(=O)NCC(N)=O)CSCC(=O)N[C@@H](Cc2ccc(OC)cc2)C(=O)N(C)[C@@H](C)C(=O)N[C@@H](CCN)C(=O)N2CCC[C@H]2C(=O)N[C@@H](Cc2cnc[nH]2)C(=O)N[C@@H](CCC(=O)O)C(=O)N2C[C@H](O)C[C@H]2C(=O)N[C@@H](Cc2c[nH]c3ccccc23)C(=O)N[C@@H](CCN)C(=O)N[C@@H](Cc2c[nH]c3ccccc23)C(=O)N1C` [Example 7090] ({CH2CO}-Y(Me)[NMeA][Dab]PHE[Hyp]W[Dab]W[NMeNle][NMeNle][Orn]CG-NH2; thioether N-14) and `CCCC[C@H]1C(=O)N(C)[C@@H](CCCC)C(=O)N[C@@H](CCCN)C(=O)N[C@H](C(=O)NCC(N)=O)CSCC(=O)N[C@@H](Cc2ccc(OC)cc2)C(=O)N(C)[C@@H](C)C(=O)N[C@@H](CC(=O)O)C(=O)N2CCC[C@H]2C(=O)N[C@@H](Cc2cnc[nH]2)C(=O)N[C@@H](CCCCN)C(=O)N2C[C@H](O)C[C@H]2C(=O)N[C@@H](Cc2c[nH]c3ccccc23)C(=O)N[C@@H](CCN)C(=O)N[C@@H](Cc2c[nH]c3ccccc23)C(=O)N1C` [Example 7094] ({CH2CO}-Y(Me)[NMeA]DPHK[Hyp]W[Dab]W[NMeNle][NMeNle][Orn]CG-NH2; thioether N-14) fall in the same range of IC50: 1 to 9.9 nM for the first, 1 to 9.9 nM for the second.

`CCCC[C@H]1C(=O)N(C)[C@@H](CCCC)C(=O)N[C@@H](CCCN)C(=O)N[C@H](C(=O)NCC(N)=O)CSCC(=O)N[C@@H](Cc2ccc(OC)cc2)C(=O)N(C)[C@@H](C)C(=O)N[C@@H](CC(N)=O)C(=O)N2CCC[C@H]2C(=O)N[C@@H](CN)C(=O)N[C@@H](CCC(=O)O)C(=O)N2C[C@H](O)C[C@H]2C(=O)N[C@@H](Cc2c[nH]c3ccccc23)C(=O)N[C@@H](CCN)C(=O)N[C@@H](Cc2c[nH]c3ccccc23)C(=O)N1C` [Example 7091] ({CH2CO}-Y(Me)[NMeA]NP[Dap]E[Hyp]W[Dab]W[NMeNle][NMeNle][Orn]CG-NH2; thioether N-14) and `CCCC[C@H]1C(=O)N(C)[C@@H](CCCC)C(=O)N[C@@H](CCCN)C(=O)N[C@H](C(=O)NCC(N)=O)CSCC(=O)N[C@@H](Cc2ccc(OC)cc2)C(=O)N(C)[C@@H](C)C(=O)N[C@@H](CC(N)=O)C(=O)N2CCC[C@H]2C(=O)N[C@@H](Cc2cnc[nH]2)C(=O)N[C@@H](CCCCN)C(=O)N2C[C@H](O)C[C@H]2C(=O)N[C@@H](Cc2c[nH]c3ccccc23)C(=O)N[C@@H](CCN)C(=O)N[C@@H](Cc2c[nH]c3ccccc23)C(=O)N1C` [Example 7093] ({CH2CO}-Y(Me)[NMeA]NPHK[Hyp]W[Dab]W[NMeNle][NMeNle][Orn]CG-NH2; thioether N-14) fall in the same range of IC50: 1 to 9.9 nM for the first, 1 to 9.9 nM for the second.
